Measured values reported in PubChem BioAssay AID1963428 (Molecular Pharmacology Branch, DTP, NCI, 2024).

Test system: 171881-019-R-J1-PDC complex spheroid growth, % test/control
Test: Anticancer human tumor 171881-019-R-J1-PDC patient-derived invasive breast carcinoma cell line growth inhibition [Asc]
Details: for IC50: curve of first compound; for viability, T/C: stronger effect = lower value
Summary of the method: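 Concentration series start at each agent's clinical Cmax, or at 10 microM when none is established, and drop in half-log steps; agents are applied alone or together to complex spheroids built with HUVEC and hMSC.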

[1] = second compound 0.1 µM, first compound 0.0316 µM
[2] = second compound 0.1 µM, first compound 0.1 µM
[3] = second compound 0.1 µM, first compound 0.316 µM
[4] = second compound 0.1 µM, first compound 1 µM
[5] = second compound 0.1 µM, first compound 3.16 µM
[6] = second compound 0.1 µM, first compound 10 µM
[7] = second compound 0.316 µM, first compound 0.0316 µM
[8] = second compound 0.316 µM, first compound 0.1 µM
[9] = second compound 0.316 µM, first compound 0.316 µM
[10] = second compound 0.316 µM, first compound 1 µM
[11] = second compound 0.316 µM, first compound 3.16 µM
[12] = second compound 0.316 µM, first compound 10 µM
[13] = second compound 1 µM, first compound 0.0316 µM
[14] = second compound 1 µM, first compound 0.1 µM
[15] = second compound 1 µM, first compound 0.316 µM
[16] = second compound 1 µM, first compound 1 µM
[17] = second compound 1 µM, first compound 3.16 µM
[18] = second compound 1 µM, first compound 10 µM
[19] = second compound 3.16 µM, first compound 0.0316 µM
[20] = second compound 3.16 µM, first compound 0.1 µM
[21] = second compound 3.16 µM, first compound 0.316 µM
[22] = second compound 3.16 µM, first compound 1 µM
[23] = second compound 3.16 µM, first compound 3.16 µM
[24] = second compound 3.16 µM, first compound 10 µM
[25] = second compound 10 µM, first compound 0.0316 µM
[26] = second compound 10 µM, first compound 0.1 µM
[27] = second compound 10 µM, first compound 0.316 µM
[28] = second compound 10 µM, first compound 1 µM
[29] = second compound 10 µM, first compound 3.16 µM
[30] = second compound 10 µM, first compound 10 µM
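Throughout, for viability, T/C: spheroids exposed to compounds for 7 days.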

C#Cc1c(F)ccc2cc(O)cc(-c3ncc4c(N5CC6CCC(C5)N6)nc(OCC56CCCN5CC(F)C6)nc4c3F)c12 (stereo not given) + Cc1c(S(C)(=O)=O)c(-c2cc(F)cc(N3CCN(c4ccc(NS(=O)(=O)c5ccc(NC(CCN6CCC(C(=O)OCCCP(=O)(O)O)CC6)CSc6ccccc6)c(S(=O)(=O)C(F)(F)F)c5)cc4)CC3)c2)c(-c2ccc(Cl)cc2)n1C(C)C
IC50 (second compound 0.1 µM): > 10 µM
IC50 (second compound 0.316 µM): > 10 µM
IC50 (second compound 1 µM): > 10 µM
IC50 (second compound 3.16 µM): 6.86 µM
IC50 (second compound 10 µM): 4 µM
viability, T/C [1]: 103%
viability, T/C [2]: 116%
viability, T/C [3]: 152%
viability, T/C [4]: 167%
viability, T/C [5]: 154%
viability, T/C [6]: 111%
viability, T/C [7]: 138%
viability, T/C [8]: 169%
viability, T/C [9]: 219%
viability, T/C [10]: 165%
viability, T/C [11]: 112%
viability, T/C [12]: 86%
viability, T/C [13]: 162%
viability, T/C [14]: 177%
viability, T/C [15]: 165%
viability, T/C [16]: 131%
viability, T/C [17]: 84.3%
viability, T/C [18]: 61.1%
viability, T/C [19]: 179%
viability, T/C [20]: 179%
viability, T/C [21]: 155%
viability, T/C [22]: 97.6%
viability, T/C [23]: 63.2%
viability, T/C [24]: 43%
viability, T/C [25]: 179%
viability, T/C [26]: 186%
viability, T/C [27]: 135%
viability, T/C [28]: 91.5%
viability, T/C [29]: 58%
viability, T/C [30]: 33.9%

C=C(F)C(=O)N1CCN(c2nc(OCC3CCCN3C)nc3c2CCN(c2cccc4cccc(Cl)c24)C3)CC1CC#N (stereo not given) + Cc1c(S(C)(=O)=O)c(-c2cc(F)cc(N3CCN(c4ccc(NS(=O)(=O)c5ccc(NC(CCN6CCC(C(=O)OCCCP(=O)(O)O)CC6)CSc6ccccc6)c(S(=O)(=O)C(F)(F)F)c5)cc4)CC3)c2)c(-c2ccc(Cl)cc2)n1C(C)C
IC50 (second compound 0.1 µM): 5.61 µM
IC50 (second compound 0.316 µM): 5.89 µM
IC50 (second compound 1 µM): 4.12 µM
IC50 (second compound 3.16 µM): 2.53 µM
IC50 (second compound 10 µM): 2.43 µM
viability, T/C [1]: 93.8%
viability, T/C [2]: 86.7%
viability, T/C [3]: 106%
viability, T/C [4]: 90.9%
viability, T/C [5]: 118%
viability, T/C [6]: 0.36%
viability, T/C [7]: 130%
viability, T/C [8]: 129%
viability, T/C [9]: 113%
viability, T/C [10]: 125%
viability, T/C [11]: 108%
viability, T/C [12]: 0.3%
viability, T/C [13]: 124%
viability, T/C [14]: 136%
viability, T/C [15]: 133%
viability, T/C [16]: 131%
viability, T/C [17]: 64.8%
viability, T/C [18]: 0.25%
viability, T/C [19]: 161%
viability, T/C [20]: 149%
viability, T/C [21]: 144%
viability, T/C [22]: 185%
viability, T/C [23]: 23.6%
viability, T/C [24]: 0.3%
viability, T/C [25]: 179%
viability, T/C [26]: 191%
viability, T/C [27]: 196%
viability, T/C [28]: 202%
viability, T/C [29]: 15.2%
viability, T/C [30]: 0.27%

CCN1C(C(=O)NC23CCC(C(=O)O)(CC2)CC3)C(c2cccc(Cl)c2F)C2(C(=O)Nc3cc(Cl)ccc32)C12CCCCC2 (stereo not given) + Cc1c(S(C)(=O)=O)c(-c2cc(F)cc(N3CCN(c4ccc(NS(=O)(=O)c5ccc(NC(CCN6CCC(C(=O)OCCCP(=O)(O)O)CC6)CSc6ccccc6)c(S(=O)(=O)C(F)(F)F)c5)cc4)CC3)c2)c(-c2ccc(Cl)cc2)n1C(C)C
IC50 (second compound 0.1 µM): > 3 µM
IC50 (second compound 0.316 µM): > 3 µM
IC50 (second compound 1 µM): > 3 µM
IC50 (second compound 3.16 µM): > 3 µM
IC50 (second compound 10 µM): > 3 µM
viability, T/C (second compound 0.1 µM, first compound 0.00949 µM): 82.5%
viability, T/C (second compound 0.1 µM, first compound 0.03 µM): 107%
viability, T/C (second compound 0.1 µM, first compound 0.0949 µM): 102%
viability, T/C (second compound 0.1 µM, first compound 0.3 µM): 90.5%
viability, T/C (second compound 0.1 µM, first compound 0.949 µM): 105%
viability, T/C (second compound 0.1 µM, first compound 3 µM): 120%
viability, T/C (second compound 0.316 µM, first compound 0.00949 µM): 100%
viability, T/C (second compound 0.316 µM, first compound 0.03 µM): 110%
viability, T/C (second compound 0.316 µM, first compound 0.0949 µM): 129%
viability, T/C (second compound 0.316 µM, first compound 0.3 µM): 105%
viability, T/C (second compound 0.316 µM, first compound 0.949 µM): 144%
viability, T/C (second compound 0.316 µM, first compound 3 µM): 146%
viability, T/C (second compound 1 µM, first compound 0.00949 µM): 116%
viability, T/C (second compound 1 µM, first compound 0.03 µM): 133%
viability, T/C (second compound 1 µM, first compound 0.0949 µM): 129%
viability, T/C (second compound 1 µM, first compound 0.3 µM): 117%
viability, T/C (second compound 1 µM, first compound 0.949 µM): 130%
viability, T/C (second compound 1 µM, first compound 3 µM): 167%
viability, T/C (second compound 3.16 µM, first compound 0.00949 µM): 152%
viability, T/C (second compound 3.16 µM, first compound 0.03 µM): 147%
viability, T/C (second compound 3.16 µM, first compound 0.0949 µM): 159%
viability, T/C (second compound 3.16 µM, first compound 0.3 µM): 162%
viability, T/C (second compound 3.16 µM, first compound 0.949 µM): 146%
viability, T/C (second compound 3.16 µM, first compound 3 µM): 163%
viability, T/C (second compound 10 µM, first compound 0.00949 µM): 192%
viability, T/C (second compound 10 µM, first compound 0.03 µM): 179%
viability, T/C (second compound 10 µM, first compound 0.0949 µM): 182%
viability, T/C (second compound 10 µM, first compound 0.3 µM): 185%
viability, T/C (second compound 10 µM, first compound 0.949 µM): 193%
viability, T/C (second compound 10 µM, first compound 3 µM): 172%

CNC(C)C(=O)NC1CN(S(=O)(=O)c2cccc(S(=O)(=O)N3CCC4CCC(C(=O)NC(c5ccccc5)c5ccccc5)N4C(=O)C(NC(=O)C(C)NC)C3)c2)CCC2CCC(C(=O)NC(c3ccccc3)c3ccccc3)N2C1=O (stereo not given) + Cc1c(S(C)(=O)=O)c(-c2cc(F)cc(N3CCN(c4ccc(NS(=O)(=O)c5ccc(NC(CCN6CCC(C(=O)OCCCP(=O)(O)O)CC6)CSc6ccccc6)c(S(=O)(=O)C(F)(F)F)c5)cc4)CC3)c2)c(-c2ccc(Cl)cc2)n1C(C)C
IC50 (second compound 0.1 µM): > 1 µM
IC50 (second compound 0.316 µM): > 1 µM
IC50 (second compound 1 µM): > 1 µM
IC50 (second compound 3.16 µM): > 1 µM
IC50 (second compound 10 µM): > 1 µM
viability, T/C (second compound 0.1 µM, first compound 0.00316 µM): 100%
viability, T/C (second compound 0.1 µM, first compound 0.01 µM): 90.4%
viability, T/C [1]: 96%
viability, T/C [2]: 87.8%
viability, T/C [3]: 82.5%
viability, T/C [4]: 73.2%
viability, T/C (second compound 0.316 µM, first compound 0.00316 µM): 110%
viability, T/C (second compound 0.316 µM, first compound 0.01 µM): 109%
viability, T/C [7]: 94.9%
viability, T/C [8]: 112%
viability, T/C [9]: 90.8%
viability, T/C [10]: 97.2%
viability, T/C (second compound 1 µM, first compound 0.00316 µM): 90.1%
viability, T/C (second compound 1 µM, first compound 0.01 µM): 133%
viability, T/C [13]: 129%
viability, T/C [14]: 107%
viability, T/C [15]: 104%
viability, T/C [16]: 119%
viability, T/C (second compound 3.16 µM, first compound 0.00316 µM): 138%
viability, T/C (second compound 3.16 µM, first compound 0.01 µM): 141%
viability, T/C [19]: 144%
viability, T/C [20]: 130%
viability, T/C [21]: 126%
viability, T/C [22]: 156%
viability, T/C (second compound 10 µM, first compound 0.00316 µM): 204%
viability, T/C (second compound 10 µM, first compound 0.01 µM): 171%
viability, T/C [25]: 172%
viability, T/C [26]: 183%
viability, T/C [27]: 161%
viability, T/C [28]: 173%
